Columns and labels:
[1] = system: Dog eye (hyperemia); experiment: Ocular surface hyperemia in dogs after topical dosing; format: in vivo; parameters: scale not given here
[2] = target: T1, EP3 receptor (UniProt A0A286XLZ9); experiment: EP3-activity: inhibition of the twitch response induced by electrical field stimulation in the isolated guinea pig vas deferens; format: cell-based; conditions: pa = printed beside some values, read-out: EC50 (nM) EP3, first value of the cell
T1 sequence (A0A286XLZ9 1-363): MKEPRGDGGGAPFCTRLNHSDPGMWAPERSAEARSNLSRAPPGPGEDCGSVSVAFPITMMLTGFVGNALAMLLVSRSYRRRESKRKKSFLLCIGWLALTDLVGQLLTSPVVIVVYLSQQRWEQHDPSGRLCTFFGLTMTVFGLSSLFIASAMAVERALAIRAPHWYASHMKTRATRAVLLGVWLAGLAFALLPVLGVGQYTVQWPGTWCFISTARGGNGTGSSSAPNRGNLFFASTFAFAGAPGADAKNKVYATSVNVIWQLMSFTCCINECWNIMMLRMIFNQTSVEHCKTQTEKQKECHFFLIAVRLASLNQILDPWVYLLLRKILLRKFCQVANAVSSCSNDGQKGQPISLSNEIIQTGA
Method: (§1) Activity at different prostanoid receptors was measured in vitro in isolated smooth muscle preparations. FP-activity was measured as contraction of the isolated feline iris sphincter. EP1-activity was measured as contraction of the longitudinal smooth muscle of the isolated guinea pig ileum. EP3-activity was measured as inhibition of the twitch response induced by electrical field stimulation in the isolated guinea pig was deferens and as contraction of the longitudinal smooth muscle of the isolated chick ileum. Activity was also measured as relaxation of smooth muscle of isolated rabbit jugular vein a preparation which appears to contain a unique PGF2α-sensitive receptor provisionally termed FPVASC. TP-vasoconstrictor activity was measured as contraction of rings of the isolated rat thoracic aorta. Effects on platelets from healthy human donors were measured by incubating platelet-rich plasma with the compounds described herein. Inhibition of aggregation was determined by the ability of the compounds described herein to inhibit platelet aggregation in platelet-rich plasma induced by 20 μM ADP.

[3] = system: PGF2α-sensitive receptor provisionally termed FPVASC; experiment: Relaxation of smooth muscle of isolated rabbit jugular vein; format: cell-based; conditions: isolated rabbit jugular vein relaxation; read-out: EC50 (nM) FPVASC
Method: as §1

[4] = target: T2, EP1 receptor (Cavia porcellus, UniProt A0A286XHJ6); experiment: EP1-activity: contraction of the longitudinal smooth muscle of the isolated guinea pig ileum; format: cell-based
T2 sequence (A0A286XHJ6 1-405): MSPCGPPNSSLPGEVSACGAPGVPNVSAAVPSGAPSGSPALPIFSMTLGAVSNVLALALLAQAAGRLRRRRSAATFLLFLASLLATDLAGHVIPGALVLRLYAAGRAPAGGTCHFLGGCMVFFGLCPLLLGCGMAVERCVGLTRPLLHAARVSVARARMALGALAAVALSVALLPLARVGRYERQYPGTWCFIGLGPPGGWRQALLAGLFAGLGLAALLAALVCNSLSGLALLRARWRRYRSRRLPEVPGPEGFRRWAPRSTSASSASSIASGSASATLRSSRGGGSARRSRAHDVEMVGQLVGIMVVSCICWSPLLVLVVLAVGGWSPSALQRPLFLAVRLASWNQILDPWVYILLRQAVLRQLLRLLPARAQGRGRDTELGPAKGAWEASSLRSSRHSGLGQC
Method: as §1

[5] = system: Dog eye (miosis); experiment: Miosis in dogs after topical dosing; format: in vivo
[6] = target: T3, TP receptor (Rattus norvegicus, UniProt P34978); experiment: TP-vasoconstrictor activity: contraction of rings of the isolated rat thoracic aorta; format: cell-based; conditions: isolated rat thoracic aorta contraction; read-out: EC50 (nM) TP
T3 construct: rings of the isolated rat thoracic aorta; from tissue; host or cells: isolated rat thoracic aorta rings
T3 sequence (P34978 1-341): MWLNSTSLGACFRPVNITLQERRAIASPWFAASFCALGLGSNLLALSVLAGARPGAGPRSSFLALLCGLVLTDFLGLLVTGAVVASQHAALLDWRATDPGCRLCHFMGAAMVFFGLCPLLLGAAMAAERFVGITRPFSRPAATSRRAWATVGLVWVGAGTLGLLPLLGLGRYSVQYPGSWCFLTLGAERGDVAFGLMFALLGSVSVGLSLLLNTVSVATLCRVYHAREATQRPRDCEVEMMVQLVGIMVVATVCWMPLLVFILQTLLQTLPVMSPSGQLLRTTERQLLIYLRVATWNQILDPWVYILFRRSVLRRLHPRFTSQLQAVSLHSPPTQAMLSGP
Method: as §1

[7] = system: Dog intraocular pressure; experiment: Dog intraocular pressure by applanation pneumatonometry; format: in vivo; conditions: dogs
Method: The compounds were prepared at the said concentrations in a vehicle comprising 0.1% polysorbate 80 and 10 mM TRIS base. Dogs were treated by administering 25 μl to the ocular surface, the contralateral eye received vehicle as a control. Intraocular pressure was measured by applanation pneumatonometry. Dog intraocular pressure was measured immediately before drug administration and at 6 hours thereafter.

[8] = system: ocular surface; conditions: humans; cited from earlier work
[9] = system: intraocular pressure; conditions: ocular; cited from earlier work

Hyp (hyperemia score) ([1]; 0.1%)	EC50 [2] [nM]	EC50 [3] [nM]	EC50 [4] [nM]	Miosis ([5]; 0.1%)	EC50 [6] [nM]	Compound	ocular hypotensive effect (in words) [7]	further results
0.38	43	20	> 10000	pinpt	4010	O=C(O)CCC/C=C\C[C@@H]1[C@@H](/C=C/[C@@H](O)CCc2cccs2)[C@H](O)C[C@@H]1O	–	–
0.79	> 10000	31	> 10000	pinpt	> 10000	O=C(O)CCC/C=C\C[C@@H]1[C@@H](/C=C/[C@H](O)CCc2cccs2)[C@H](O)C[C@@H]1O	–	–
1.38	305	> 7140	> 10000	pinpt	~10000	Cc1cc(CC[C@H](O)/C=C/[C@@H]2[C@@H](C/C=C\CCCC(=O)O)[C@@H](O)C[C@H]2O)cs1	–	Hyp (hyperemia score) ([1]; 0.01%): 0.42; Miosis ([5]; 0.01%): pinpt
1.0	36	8.5	> 10000	pinpoint	5080	O=C(O)CCC/C=C\C[C@@H]1[C@@H](/C=C/[C@@H](O)CCc2ccc(Br)s2)[C@H](O)C[C@@H]1O	–	–
–	–	–	–	–	–	O=C(O)CCC/C=C\C[C@@H]1[C@@H](/C=C/[C@@H](O)CCc2cc(Cl)sc2Cl)[C@H](O)C[C@@H]1O [Compound 4g, 7-[3α,5α-Dihydroxy-2-(3α-hydroxy-5-(3-(2,5-dichloro)thienyl)-1E-pentenyl)cyclopentyl]-5Z-heptenoic acid]	pronounced ocular hypotensive effect	–
–	–	–	–	–	–	O=C(O)CCC/C=C\C[C@@H]1[C@@H](/C=C/[C@@H](O)CCc2ccsc2)[C@H](O)C[C@@H]1O [Compound 4p, 7-[3α,5α-Dihydroxy-2-(3α-hydroxy-5-(3-thienyl)-1E-pentenyl)cyclopentyl]-5Z-heptenoic acid]	excellent ability to lower intraocular pressure	–
–	–	–	–	–	–	NC(=O)CCC/C=C\CC1C(O)CC(O)C1/C=C/C(O)CCc1sccc1I (stereo not shown) [Compound 8t]	pronounced ocular hypotensive effect	–
–	–	–	–	–	–	Cc1c(Br)csc1CCC(O)/C=C/C1C(O)CC(O)C1C/C=C\CCCC(N)=O (stereo not shown) [Compound 8u]	pronounced ocular hypotensive effect	–
–	–	–	–	–	–	NC(=O)CCC/C=C\CC1C(O)CC(O)C1/C=C/C(O)CCc1scc(Br)c1Br (stereo not shown) [Compound 8v]	pronounced ocular hypotensive effect	–
0.6	400	9.2	2000	pinpoint	2460	O=C(O)CCC/C=C\C[C@@H]1[C@@H](/C=C/[C@@H](O)CCc2ccsc2)[C@H](O)C[C@@H]1O [drawing 12]	–	–
0.5	> 10000	7.7	> 10000	pinpt	2300	O=C(O)CCC/C=C\C[C@@H]1[C@@H](/C=C/[C@@H](O)CCc2cc(Cl)sc2Cl)[C@H](O)C[C@@H]1O [drawing 28]	–	–
–	–	–	–	–	–	CCCCC[C@H](O)/C=C/[C@@H]1[C@@H](C/C=C\CCCC(=O)OC(C)C)[C@@H](O)C[C@H]1O [isopropyl ester of PGF2α]	–	side effects of topical ocular use (in words) [8]: ocular surface (conjunctival) hyperemia and foreign-body sensation; hypotensive potency versus parent compound (in words) [9]: significantly greater hypotensive potency than the parent compound
–	–	–	–	–	–	prostaglandin F2α [PGF2α]	–	side effects of topical ocular use (in words) [8]: ocular surface (conjunctival) hyperemia and foreign-body sensation

Reference: patent US6602900B2, “Cyclopentane heptan(ENE)oic acid, 2-heteroarylalkenyl derivatives as therapeutic agents” (Allergan, Inc., priority 1992, dated 2003)
